From patent publication US6660772B2, “Use of 2-amino-1-(4-hydroxy-2-methanesulfonamidophenyl)ethanol for treating urinary incontinence” (Boehringer Ingelheim Pharma KG, priority 2001, dated 2003)

Tested on: dog
Assay: Activity (maximum contraction) in the dog compared with noradrenaline
Settings: percentage of contraction compared with noradrenaline
Description: The efficacy and selectivity of the compound according to the invention is determined as follows, using the same findings as described in 1:
Maximum contraction in the dog and activity on human urethra are percentages of contraction compared with noradrenaline. Selectivity in the dog is the difference obtained from the percentage contraction of the dog's femoral artery at 10^−5 M and percentage contraction of the carotid artery in the dog at 10^−5 M.

SMILES: CS(=O)(=O)Nc1cc(C(O)CN)ccc1O (centres unmarked) [Compound 1, 2-amino-1-(4-hydroxy-3-methanesulfonamidophenyl)ethanol]
- Activity in the Dog (maximum contraction): 103%

SMILES: CS(=O)(=O)Nc1ccc(F)c([C@@H](O)CN)c1 [Compound 2, (−)-R-2-Amino-1-(2-fluoro-5-methanesulfonamidophenyl)ethanol]
- Activity in the Dog (maximum contraction): 79%
